Measurements taken from ChEMBL document CHEMBL5724696, “Autophagy assay results for EUbOPEN Chemogenomics Library” (2024).
Where “and” joins values, the source holds several entries; their conditions need not be identical. Identical values can stand only once.

What was measured:
Format in all cases: functional, Homo sapiens
U2OS [1] = test: (§1) Here: values are normalized to the negative (DMSO; defined as 0% autophagy induction) and positive (250nM Torin1; mTOR inhibitor; defined as maximal inducer of autophagy = 100%) control compounds and represented as % of autophagy induction. […] The impact of autophagy induction on cells is complex and depends on the affected target. As such, the magnitude of a phenotype may not be equally mirrored in the %-value of autophagy induction and vice versa. The dynamics of the induction may indicate the mode of activation: e.g. activation via phosphorylation or a signaling cascade may occur fast, while activation via transcription factors may take considerably longer. […] Of note, treatment concentrations may be sub-optimal for specific compounds, leading to false negative annotations.; settings: Culturing Media DMEM, 1 % Penicillin/Streptomycin, 10% Fetal bovin serum Add-On: No, Screening Media Control DMEM, Screening Media Samples DMEM
TERT-RPE1 = test: as §1; settings: Culturing Media DMEM/F12 (1:1), 1 % Penicillin/Streptomycin, 10% Fetal bovin serum Add-On: No, Screening Media Control DMEM/F12 (1:1), Screening Media Samples DMEM/F12 (1:1)
U2OS [2] = test: as §1; settings: Culturing Media DMEM, 1 % Penicillin/Streptomycin, 10% Fetal bovin serum Add-On: No, Screening Media Control DMEM, Screening Media Samples DMEM; remark: listed apart in the source
[3] = Compound Concentration 0.5 uM, Timepoint 12 hours
[4] = Compound Concentration 0.5 uM, Timepoint 24 hours
[5] = Compound Concentration 0.5 uM, Timepoint 36 hours
[6] = Compound Concentration 0.5 uM, Timepoint 60 hours
[7] = Compound Concentration 2 uM, Timepoint 12 hours
[8] = Compound Concentration 2 uM, Timepoint 24 hours
[9] = Compound Concentration 2 uM, Timepoint 36 hours
[10] = Compound Concentration 2 uM, Timepoint 60 hours
[11] = Compound Concentration 10 uM, Timepoint 12 hours
[12] = Compound Concentration 10 uM, Timepoint 24 hours
[13] = Compound Concentration 10 uM, Timepoint 36 hours
[14] = Compound Concentration 10 uM, Timepoint 60 hours

Structure (SMILES) | autophagy induction (U2OS [1]; [3]) | autophagy induction (U2OS [1]; [4]) | autophagy induction (U2OS [1]; [5]) | autophagy induction (U2OS [1]; [6]) | autophagy induction (U2OS [1]; [7]) | autophagy induction (U2OS [1]; [8]) | autophagy induction (U2OS [1]; [9]) | autophagy induction (U2OS [1]; [10]) | autophagy induction (U2OS [1]; [11]) | autophagy induction (U2OS [1]; [12]) | autophagy induction (U2OS [1]; [13]) | autophagy induction (U2OS [1]; [14]) | autophagy induction (U2OS [2]; [3]) | autophagy induction (U2OS [2]; [4]) | autophagy induction (U2OS [2]; [5]) | autophagy induction (U2OS [2]; [6]) | autophagy induction (U2OS [2]; [7]) | autophagy induction (U2OS [2]; [8]) | autophagy induction (U2OS [2]; [9]) | autophagy induction (U2OS [2]; [10]) | other results
N#Cc1c[nH]c2c(C(=O)N3CCN(CCc4ccc(F)cc4)CC3)cccc12 [PRUVANSERIN] | -6.178% | -8.725% | -11.774% | -11.1897% | -0.7991% | -1.585% | -5.754% | -9.463% | -2.951% | 1.579% | -6.9473% | -6.12% | -2.928% | -3.235% | -1.344% | -1.7078% | -0.5957% | -2.183% | -3.588% | -2.524% | autophagy induction (TERT-RPE1; [3]): -0.9197%; autophagy induction (TERT-RPE1; [4]): -7.874%; autophagy induction (TERT-RPE1; [5]): -10.0141%; autophagy induction (TERT-RPE1; [6]): -14.8375%; autophagy induction (TERT-RPE1; [7]): -6.1985%; autophagy induction (TERT-RPE1; [8]): -7.924%; autophagy induction (TERT-RPE1; [9]): -9.7251%; autophagy induction (TERT-RPE1; [10]): -15.807%; autophagy induction (TERT-RPE1; [11]): -0.3174%; autophagy induction (TERT-RPE1; [12]): -4.163%; autophagy induction (TERT-RPE1; [13]): -3.571%; autophagy induction (TERT-RPE1; [14]): -3.5258%; autophagy induction (U2OS [2]; [11]): 4.878%; autophagy induction (U2OS [2]; [12]): -0.06233%; autophagy induction (U2OS [2]; [13]): -0.9102%; autophagy induction (U2OS [2]; [14]): -2.945%
COc1ccc(S(=O)(=O)N2c3ccc(Cl)cc3[C@](O)(c3ccccc3Cl)[C@@H]2C(=O)N2CCC[C@H]2C(N)=O)cc1OC [RELCOVAPTAN] | -8.786% | -9.572% | -12.5258% | -16.7068% | -3.79% | -9.305% | -13.7756% | -18.6617% | -6.744% | -13.3744% | -5.479% | -4.839% | -0.4488% | -3.182% | -42.6034% | -2.284% | -3.799% | -4.202% | -60.4871% | -1.266% | autophagy induction (TERT-RPE1; Compound Concentration 0.5 uM, Timepoint 12 hours, 12 h, 0.5 µM): -0.4521% and -5.349%; autophagy induction (TERT-RPE1; Compound Concentration 0.5 uM, Timepoint 24 hours, 24 h, 0.5 µM): -0.2273% and -4.727%; autophagy induction (TERT-RPE1; Compound Concentration 0.5 uM, Timepoint 36 hours, 36 h, 0.5 µM): -2.897% and -4.661%; autophagy induction (TERT-RPE1; Compound Concentration 0.5 uM, Timepoint 60 hours, 60 h, 0.5 µM): -4.347% and -7.0603%; autophagy induction (TERT-RPE1; Compound Concentration 2 uM, Timepoint 12 hours, 12 h, 2 µM): 0.8726% and -2.524%; autophagy induction (TERT-RPE1; Compound Concentration 2 uM, Timepoint 24 hours, 24 h, 2 µM): -1.739% and -2.756%; autophagy induction (TERT-RPE1; Compound Concentration 2 uM, Timepoint 36 hours, 36 h, 2 µM): -2.675% and -2.785%; autophagy induction (TERT-RPE1; Compound Concentration 2 uM, Timepoint 60 hours, 60 h, 2 µM): -4.303% and -2.0726%; autophagy induction (TERT-RPE1; Compound Concentration 10 uM, Timepoint 12 hours, 12 h, 10 µM): 0.7279% and 5.088%; autophagy induction (TERT-RPE1; Compound Concentration 10 uM, Timepoint 24 hours, 24 h, 10 µM): 4.093% and 9.7265%; autophagy induction (TERT-RPE1; Compound Concentration 10 uM, Timepoint 36 hours, 36 h, 10 µM): 6.165% and 16.6943%; autophagy induction (TERT-RPE1; Compound Concentration 10 uM, Timepoint 60 hours, 60 h, 10 µM): 11.326% and 28.0498%; autophagy induction (U2OS [2]; [11]): 4.624%; autophagy induction (U2OS [2]; [12]): 2.3507%; autophagy induction (U2OS [2]; [13]): -58.7044%; autophagy induction (U2OS [2]; [14]): -2.271%
